For the assay, the system named is 947758-054-R-J2-PDC spheroid growth, percent test/control. Description: Anticancer human tumor 947758-054-R-J2-PDC patient-derived colon adenocarcinoma cell line growth inhibition [CLK]. The conditions noted are these: spheroids with HUVEC and MSC; for viability, T/C: stronger effect = lower value. An excerpt: A high-throughput screen of multi-cell type tumor spheroids was designed to identify active combinations of […] and targeted small molecules. Complex spheroids include a stromal component modeled by human endothelial cells (HUVEC) and fibroblasts modeled by human mesenchymal stem cells (MSCs). The concentration ranges selected for each drug and investigational agent were based upon clinically achievable concentrations if the clinical Cmax of the agent was known.
Compounds. The drugs and investigational agents: cirtuvivint (SM08502; NSC835563), CC-671 (NSC850746), vemurafenib (NSC761431), tapotoclax (NSC804041), sotorasib (NSC818433), adagrasib (NSC831453), MRTX-1133 (NSC836407), BAY2416964 (NSC825713), copanlisib (NSC816437), inavolisib (NSC800729), abemaciclib (NSC768073), osimertinib (NSC779217), entinostat (NSC756642), eltanexor (KPT-8602, NSC794443), venetoclax (NSC766270), ceralasertib (NSC777638), bortezomib (NSC756655), olaparib (NSC753686), talazoparib (NSC767125), alisertib (NSC759677), peposertib (NSC802822), gemcitabine (NSC613327), 5-fluorouracil (NSC19893), SN-38 (NSC673596), oxaliplatin (NSC266046), paclitaxel (NSC125973), and doxorubicin (NSC123127), were obtained from the National Cancer Institute (NCI) Developmental Therapeutics Program Chemical Repository. The FDA-approved anticancer drug set is available from the Developmental Therapeutics Program at https://dtp.cancer.gov/organization/dscb/obtaining/available plates.htm. […] The stock solutions were prepared in dimethyl sulfoxide (DMSO, Sigma-Aldrich, St. Louis, MO, cat. D2650), except for the platinum complexes which were prepared in saline (Quality Biological, Gaithersburg, MD, cat. 114-055-101), at 800-fold the tested concentration and stored at -70 degrees C prior to their use. All drugs and investigational agents were tested over a range starting from a high concentration at or near the clinical Cmax and decreasing in half-log increments. If the clinical Cmax for an agent had not been determined, the highest concentration tested was 10 microM.
Cell Culture. All cells were maintained in an incubator at 37 degrees C and 5% CO2 with 95% humidity. The PDC lines were cultured according to standard operating procedures established by the NCI PDMR. Briefly, all PDCs were thawed and cultured in Matrigel-coated flasks prepared with a working solution of 1X Ham's F-12 nutrient mix, without supplementation (Invitrogen, Waltham, MA, cat. 11765054), 100 U/mL penicillin-streptomycin (Invitrogen, cat. 15140122), and 2.5% Matrigel (Corning Inc., Corning, NY, cat. 354248) for the first three passages. The 947758-054-R-J2-PDC line was cultured in 6B/Colon 1A media, which includes advanced DMEM/F-12 (Thermo Fisher Scientific, cat. 12634028), 10 mM HEPES (Thermo Fisher Scientific, cat. 15630080), 1X GlutaMAX supplement (Thermo Fisher Scientific, cat. 35050061), 0.1 mg/mL primocin (InvivoGen, cat. ant-pm-2), 10% defined fetal bovine serum, heat inactivated (HyClone Laboratories Inc., cat. SH30070.03HI), 1.25 mM N-Acetyl-L-cysteine (Sigma-Aldrich, cat. A9165), 10 mM nicotinamide (Sigma-Aldrich, cat. N0636), 1X B-27 supplement (Thermo Fisher Scientific, cat. 17504044), 1X N-2 supplement (Thermo Fisher Scientific, cat. 17502048), and 10 microM Y-27632 dihydrochloride (Tocris Bioscience, cat. 1254). The 876862-298-R-J1-PDC was cultured in 6E media, which includes all 6B/Colon 1A media components plus 50% L-WRN conditioned media (ATCC, cat. CRL-3276), 50 ng/mL recombinant human EGF recombinant protein (hEGF; Thermo Fisher Scientific, cat. PHG0311), 10 ng/mL recombinant human fibroblast growth factor 10 (hGFG-10; PeproTech, cat. 100-26), 1 ng/mL recombinant human fibroblast growth factor 2 (hFGF-2; PeproTech, cat. 100-18B), and 1 µM prostaglandin E2 (PGE2; Tocris, cat. 2296). The 227483-062-R1-J1-PDC line was cultured in Panc media, containing all 6E components except hFGF-2, with the addition of 500 nM SB-431542 (Selleckchem, cat. S1067) and 10 nM gastrin (Tocris, cat. 3006). […]

The values that follow come from PubChem BioAssay AID2060605 (Molecular Pharmacology Branch, DTP, NCI, 2025).

“And” between values parts separate entries of the source, which are not always exact repeats. Equal values may be shown once. The source made the active and inactive calls. Rule for the calls: active = viability on the fitted dose curve at most 10% of control; inactive = the rest. Some results are limits rather than exact numbers.
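Note: spheroids exposed to compounds for one week before readout.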
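Throughout, for viability, T/C: 100% = DMSO vehicle control wells.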

For `CC(=O)O[C@H]1C(=O)[C@@]2(C)[C@H]([C@H](OC(=O)c3ccccc3)[C@]3(O)C[C@H](OC(=O)[C@H](O)[C@@H](NC(=O)c4ccccc4)c4ccccc4)C(C)=C1C3(C)C)[C@]1(OC(C)=O)CO[C@@H]1C[C@@H]2O`, the viability, T/C (compound 0.0316 µM) was 7.6% and 8.82%; the viability, T/C (compound 0.1 µM) is 6.29% and 6.22%; the viability, T/C (compound 0.316 µM) was 5.41% and 6.88%; the viability, T/C (compound 1 µM) is 5.07% and 6.19%; the viability, T/C (compound 3.16 µM) is 6.6% and 8.41%; the viability, T/C (compound 10 µM) is 11.7% and 13.7%. In addition, the IC50 (curve of compound) was under 0.0316 µM.
As for `CC1(C)CCC(CN2CCN(c3ccc(C(=O)NS(=O)(=O)c4ccc(NCC5CCOCC5)c([N+](=O)[O-])c4)c(Oc4cnc5[nH]ccc5c4)c3)CC2)=C(c2ccc(Cl)cc2)C1`, the viability, T/C was 97.8% and 118% (compound 0.0316 µM); 77.6% and 97.2% (compound 0.1 µM); 97.4% and 110% (compound 0.316 µM); 94.5% and 86.3% (compound 1 µM); 79.5% and 87.2% (compound 3.16 µM); 11.8% and 7.38% (compound 10 µM). For the same compound, the IC50 (curve of compound) was 5.23 µM and 5.17 µM.
Regarding `CC1COCCN1c1cc(C2(S(C)(=N)=O)CC2)nc(-c2ccnc3[nH]ccc23)n1` (configuration not stated), the viability, T/C was 110% and 128% (compound 0.0316 µM); 92.4% and 100% (compound 0.1 µM); 79.1% and 102% (compound 0.316 µM); 111% and 108% (compound 1 µM); 202% (compound 3.16 µM); 26.1% and 28.4% (compound 10 µM). The result (compound 3.16 µM) was inactive. For the same compound, the IC50 (curve of compound) is 7.43 µM and 6.37 µM.
Consider `CN1CCN(c2cc(C(=O)Nc3cc4cc(-c5cnn(C)c5)ccc4cn3)ccn2)CC1`, for which the viability, T/C reads like this: (compound 0.316 µM) 5.15% [middle of 12 runs]; (compound 1 µM) 0.61% [middle of 11 runs]; (compound 3.16 µM) 0.65% [middle of 10 runs]; (compound 10 µM) 0.36% [middle of 11 runs]. For the same compound, where the note is “compound alone, run of 09/18/2023”, the IC50 was 216 nM [middle of 10 runs].
Regarding `COc1ccc([C@@H](O)c2cc(-c3ncnc4cc(N5CCOCC5)ccc34)c(F)cc2Cl)nn1`, the viability, T/C is, setting by setting: (compound 0.0316 µM) 72.8% and 98.3%; (compound 0.1 µM) 69.7% and 91.4%; (compound 0.316 µM) 86.8% and 105%; (compound 1 µM) 108% and 82.2%; (compound 3.16 µM) 97.9% and 117%; (compound 10 µM) 65.9% and 83.9%. For the same compound, under “curve of compound”, the IC50 was over 10 µM.
Regarding `COc1cccc2c1C(=O)c1c(O)c3c(c(O)c1C2=O)CC(O)(C(=O)CO)CC3OC1CC(N)C(O)C(C)O1` (configuration not stated), the viability, T/C (compound 0.0316 µM) is 94.6% and 56.2%; the viability, T/C (compound 0.1 µM) was 39.9% and 44.2%; the viability, T/C (compound 0.316 µM) is 22.5% and 26.6%; the viability, T/C (compound 1 µM) stood at 11.3%; the viability, T/C (compound 3.16 µM) is 0.28% and 0.34%; the viability, T/C (compound 10 µM) is 3.11% and 2.84%. In addition, the IC50 (curve of compound) was 0.0849 µM and 0.0585 µM.
On to `Nc1ccn(C2OC(CO)C(O)C2(F)F)c(=O)n1` (configuration not stated), for which the viability, T/C reads like this: (compound 0.0316 µM) 35.4% and 24.8%; (compound 0.1 µM) 9.92% and 9.41%; (compound 0.316 µM) 13.3% and 10.2%; (compound 1 µM) 14.8% and 12.9%; (compound 3.16 µM) 10.8% and 9.65%; (compound 10 µM) 8.94% and 10.9%. In addition, under “curve of compound”, the concentration for half-maximal inhibition (IC50) was under 0.0316 µM.
As to `O=C(c1cc(Cc2n[nH]c(=O)c3ccccc23)ccc1F)N1CCN(C(=O)C2CC2)CC1`, the viability, T/C was 94.1% and 101% (compound 0.0316 µM); 93.6% and 90% (compound 0.1 µM); 106% and 101% (compound 0.316 µM); 107% (compound 1 µM); 131% and 101% (compound 3.16 µM); 177% and 120% (compound 10 µM). The IC50 (curve of compound) is over 10 µM.
Take `O=c1[nH]cc(F)c(=O)[nH]1`: the viability, T/C was 91.8% and 91.2% (compound 0.0316 µM); 103% and 99% (compound 0.1 µM); 129% and 86.8% (compound 0.316 µM); 54.9% and 55.9% (compound 1 µM); 34.4% and 37.1% (compound 3.16 µM); 31.2% and 36.5% (compound 10 µM). The IC50 (curve of compound) is 1.29 µM and 1.43 µM.

Broadly, the viability, T/C is the result in the treated group divided by that in the control group, in per cent. For orientation: IC50 means the concentration that gives 50% inhibition.
